Test system: C4-2B Metastatic Prostate Cell Line
Experiment: UROC28/Fas label flow cytometry after SPB treatment
Assay type: cell-based, human
Conditions: for Total Fas / Total UC2BC: section UROC28/Fas
Experimental: Cells were grown to 70-80% confluence at 37° C. and 5% CO2 in T-75 tissue culture plastic flasks. SPB stock solution was added to final concentrations of 0.5, 5.0, 10.0, and 25.0 mM in appropriate fresh media to the cell cultures. Cells were incubated at 37° C. and 5% CO2 for 72 hours. Attached cells were then harvested using a solution of 0.05% trypsin and 0.53 mM EDTA (Invitrogen Corp.). Attached cells were then pooled with any the detached cells and washed with PBS pH 7.2. Cell numbers and percent viability were determined using Trypan blue dye exclusion and a hemacytometer. At the time of their use in an experiment the viability was usually about 85% for untreated cells and a range of about 15-70% for treated cells, with the lower viabilities found at higher SPB concentrations (Thompson C, 1995; Cory et al., 1998; van Engeland et al., 1996).
UC28(C) is 2.14 mg/ml rabbit polyclonal aliquot directed against the inventors' UC28 patented biomarker developed by UCor R&D gene discovery program. The Antibody was produced against a twenty amino acid (AA) synthetic peptide from the predicted AA sequence (AA 21-37) UCor, Inc. 840 Research Parkway Oklahoma City, Okla. 73104.
Goat Anti-Rabbit CY5 polyclonal Fluorchrome was used as the secondary conjugate for UC28 C rabbit polyclonal antibody and a background control for UC28 C polyclonal. Vendor is Jackson ImmunoResearch Laboratories, Inc. 872 West Baltimore Pike, P.O. Box 9 West Grove, Pa. 19390.
CD45 (FAS) IgG1 kappa—(R-phycoerythrin (RPE) is purified monoclonal antibody conjugated with R-phycoerythrin (RPE) that is specific for the FAS protein. Vendor is Dalco Corporation 6392 Via Real, Carpinteria, Calif. 93013 USA MsIgG1 IgG1 kappa R-phycoerythrin (RPE) conjugated goat anti-mouse immunoglobulins is used for (FAS) antibody negative control. Vendor is Dako Corporation 6392 Via Real, Carpinteria, Calif. 93013 USA.
A Coulter Elite engineered with a triple laser system was used to analyze all samples. Coulter control beads were used to align lasers for the dual label testing of cell samples. Laser alignment was required for both the Argon (488 nm line) laser and HeNe (633 nm line) laser. These alignments were performed prior to all measurements with the Argon laser (488 nm line) using fluorophores for FITC, RPE, PI and the HeNe laser (633 nm line) for the Cy5 fluorophores being used for the experiments described below. The histographs, voltage settings, gates, color compensation, and pressures were established prior to all sample processing.
(a) Tissue culture cells (MLC-SV40, LNCaP and C 4-2B) were aliquoted at concentration of 1×10^6 per teach 12×75 mm polystyrene tube. […]

O=C([O-])CCCc1ccccc1.[Na+] [SPB, 4-Phenylbutyric Acid, Sodium Salt]
Total Fas (5.0 mM SPB): 3.6%
Total UC2BC (5.0 mM SPB): 96.4%
Total Fas (10 mM SPB): 6.1%
Total UC2BC (10 mM SPB): 94.0%
Fas protein expression (SPB, summary of Table 7): markedly depressed
